# Reference: patent publication US9833497B2, “Human originated EGF domain proteins and use of the same” (CHENGDU SOURCEBIO LIMITED-LIABILITY COMPANY, priority 2013, dated 2017)
# Experiments:
# Format in all cases: cell-based
# Pseudomonas aeruginosa = test: MIC against Gram-negative bacteria: Pseudomonas aeruginosa
# Outline: (§1)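 Bacteria grown in LB at 37° C to McFarland 0.5, resuspended and seeded at 5×10^5 CFU/mL in 96-well plates. Purified human EGF-domain proteins two-fold serially diluted, triplicate wells; cultured at 37° C, shaking 175 rpm. MIC = lowest protein concentration with no growth.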
# Klebsiella pneumonia = test: MIC against Gram-negative bacteria: Klebsiella pneumonia
# Outline: as §1
# E. coli BL21 = test: MIC against Gram-negative bacteria: E. coli BL21
# Outline: as §1
# Proteus mirabilis = test: MIC against Gram-negative bacteria: Proteus mirabilis
# Outline: as §1
# Enterobacter cloacae = test: MIC against Gram-negative bacteria: Enterobacter cloacae
# Outline: as §1
# Moraxella catarrhalis = test: MIC against Gram-negative bacteria: Moraxella catarrhalis
# Outline: as §1
# E. coli DH5α = test: Antibacterial activity: MIC and growth curve against E. coli DH5α in 96-well plate; details: minimal inhibitory concentration against E. coli DH5α; 96-well plate, 5×10^5 CFU/mL, 37° C., judged after 8 h
# Outline: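 Log-phase DH5α (OD600 about 0.5, 37° C, 185 rpm in LB) was pelleted, resuspended in fresh LB and seeded at 5×10^5 CFU/mL with recombinant protein at 50, 25 and 12.5 μg/mL (two-fold series), in triplicate. Plates were shaken at 175 rpm, 37° C, and OD600 was read every 30 min. MIC was the lowest concentration with no growth.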
# Aeromonas hydrophila = test: MIC against Gram-negative bacteria: Aeromonas hydrophila
# Outline: as §1
# Serratia marcescens = test: MIC against Gram-negative bacteria: Serratia marcescens
# Outline: as §1
# Proteus vulgaris = test: MIC against Gram-negative bacteria: Proteus vulgaris
# Outline: as §1
# Citrobacter diversus = test: MIC against Gram-negative bacteria: Citrobacter diversus
# Outline: as §1
# [1] = P. aeruginosa, 10 h cultivation at 37° C.
# [2] = K. pneumonia, 10 h cultivation at 37° C.
# [3] = E. coli BL21, 10 h cultivation at 37° C.
# [4] = P. mirabilis, 10 h cultivation at 37° C.
# [5] = E. cloacae, 10 h cultivation at 37° C.
# [6] = M. catarrhalis, 10 h cultivation at 37° C.
# [7] = A. hydrophila, 10 h cultivation at 37° C.
# [8] = S. marcescens, 10 h cultivation at 37° C.
# [9] = P. vulgaris, 10 h cultivation at 37° C.
# [10] = C. diversus, 10 h cultivation at 37° C.
# [11] = 10 h cultivation at 37° C., 5×10^5 CFU/mL, two-fold serial dilution
# [12] = 96-well plate, 5×10^5 CFU/mL, 37° C., 10 h
substance,measurement,setting,value
PRT1035 (HRAKCAPSYLFSCFNGGECVHPAFCDCRRFNATGPRCQ; listed as Homo sapiens),MIC,Pseudomonas aeruginosa; [1],12.5 µg/mL
same,MIC,Klebsiella pneumonia; [2],25 µg/mL
same,MIC,E. coli BL21; [3],50 µg/mL
same,MIC,Proteus mirabilis; [4],12.5 µg/mL
same,MIC,Enterobacter cloacae; [5],25 µg/mL
same,MIC,Moraxella catarrhalis; [6],25 µg/mL
same,MIC,E. coli DH5α,12.5 µg/mL
same,MIC,Aeromonas hydrophila; [7],50 µg/mL
same,MIC,Serratia marcescens; [8],50 µg/mL
same,MIC,Proteus vulgaris; [9],25 µg/mL
same,MIC,Citrobacter diversus; [10],12.5 µg/mL
PRT761 (RKDVCQAIDHGCEHICVNSDDSYTCECLEGFRLAEDGKRCR; listed as Homo sapiens),MIC (μg/mL) P. aeruginosa,"Pseudomonas aeruginosa; P. aeruginosa, 10 h cultivation at 37° C., 5×10^5 CFU/mL",50 µg/mL
same,MIC (μg/mL) K. pneumonia,"Klebsiella pneumonia; K. pneumonia, 10 h cultivation at 37° C., 5×10^5 CFU/mL",12.5 µg/mL
same,MIC (μg/mL) E. coli BL21,"E. coli BL21; E. coli BL21, 10 h cultivation at 37° C., 5×10^5 CFU/mL",12.5 µg/mL
same,MIC (μg/mL) P. mirabilis,"Proteus mirabilis; P. mirabilis, 10 h cultivation at 37° C., 5×10^5 CFU/mL",50 µg/mL
same,MIC (μg/mL) E. cloacae,"Enterobacter cloacae; E. cloacae, 10 h cultivation at 37° C., 5×10^5 CFU/mL",50 µg/mL
same,MIC (μg/mL) M. catarrhalis,"Moraxella catarrhalis; M. catarrhalis, 10 h cultivation at 37° C., 5×10^5 CFU/mL",25 µg/mL
same,MIC,E. coli DH5α,50 µg/mL
same,MIC (μg/mL) A. hydrophila,"Aeromonas hydrophila; A. hydrophila, 10 h cultivation at 37° C., 5×10^5 CFU/mL",25 µg/mL
same,MIC (μg/mL) S. marcescens,"Serratia marcescens; S. marcescens, 10 h cultivation at 37° C., 5×10^5 CFU/mL",25 µg/mL
same,MIC (μg/mL) P. vulgaris,"Proteus vulgaris; P. vulgaris, 10 h cultivation at 37° C., 5×10^5 CFU/mL",12.5 µg/mL
same,MIC (μg/mL) C. diversus,"Citrobacter diversus; C. diversus, 10 h cultivation at 37° C., 5×10^5 CFU/mL",12.5 µg/mL
PRT1180 (DIDYCEPNPCQNGAQCYNRASDYFCKCPEDYEGKNCS; listed as Homo sapiens),MIC P. aeruginosa,Pseudomonas aeruginosa; [11],50 µg/mL
same,MIC K. pneumonia,Klebsiella pneumonia; [11],25 µg/mL
same,MIC E. coli BL21,E. coli BL21; [11],12.5 µg/mL
same,MIC P. mirabilis,Proteus mirabilis; [11],25 µg/mL
same,MIC E. cloacae,Enterobacter cloacae; [11],12.5 µg/mL
same,MIC M. catarrhalis,Moraxella catarrhalis; [11],12.5 µg/mL
same,MIC,E. coli DH5α,50 µg/mL
same,MIC A. hydrophila,Aeromonas hydrophila; [11],50 µg/mL
same,MIC S. marcescens,Serratia marcescens; [11],25 µg/mL
same,MIC P. vulgaris,Proteus vulgaris; [11],50 µg/mL
same,MIC C. diversus,Citrobacter diversus; [11],25 µg/mL
PRT1265 (DVDECLENNGGCQHTCVNVMGSYECCCKEGFFLSDNQHTCI; listed as Homo sapiens),MIC against P. aeruginosa,"Pseudomonas aeruginosa; Pseudomonas aeruginosa, 96-well plate, 5×10^5 CFU/mL, 37° C., 10 h",25 µg/mL
same,MIC against K. pneumonia,"Klebsiella pneumonia; Klebsiella pneumonia, 96-well plate, 5×10^5 CFU/mL, 37° C., 10 h",12.5 µg/mL
same,MIC against E. coli BL21,"E. coli BL21; E. coli BL21, 96-well plate, 5×10^5 CFU/mL, 37° C., 10 h",50 µg/mL
same,MIC against P. mirabilis,"Proteus mirabilis; Proteus mirabilis, 96-well plate, 5×10^5 CFU/mL, 37° C., 10 h",12.5 µg/mL
same,MIC against E. cloacae,"Enterobacter cloacae; Enterobacter cloacae, 96-well plate, 5×10^5 CFU/mL, 37° C., 10 h",25 µg/mL
same,MIC against M. catarrhalis,"Moraxella catarrhalis; Moraxella catarrhalis, 96-well plate, 5×10^5 CFU/mL, 37° C., 10 h",12.5 µg/mL
same,MIC,E. coli DH5α,25 µg/mL
same,MIC against A. hydrophila,"Aeromonas hydrophila; Aeromonas hydrophila, 96-well plate, 5×10^5 CFU/mL, 37° C., 10 h",50 µg/mL
same,MIC against S. marcescens,"Serratia marcescens; Serratia marcescens, 96-well plate, 5×10^5 CFU/mL, 37° C., 10 h",12.5 µg/mL
same,MIC against P. vulgaris,"Proteus vulgaris; Proteus vulgaris, 96-well plate, 5×10^5 CFU/mL, 37° C., 10 h",50 µg/mL
same,MIC against C. diversus,"Citrobacter diversus; Citrobacter diversus, 96-well plate, 5×10^5 CFU/mL, 37° C., 10 h",25 µg/mL
PRT733 (SSNGCSNNMNACQQICLPVPGGLFSCACATGFKLNPDNRSCS; listed as Homo sapiens),MIC P. aeruginosa,Pseudomonas aeruginosa; [12],50 µg/mL
same,MIC K. pneumonia,Klebsiella pneumonia; [12],12.5 µg/mL
same,MIC E. coli BL21,E. coli BL21; [12],12.5 µg/mL
same,MIC P. mirabilis,Proteus mirabilis; [12],25 µg/mL
same,MIC E. cloacae,Enterobacter cloacae; [12],50 µg/mL
same,MIC M. catarrhalis,Moraxella catarrhalis; [12],50 µg/mL
same,MIC,E. coli DH5α,50 µg/mL
same,MIC A. hydrophila,Aeromonas hydrophila; [12],12.5 µg/mL
same,MIC S. marcescens,Serratia marcescens; [12],25 µg/mL
same,MIC P. vulgaris,Proteus vulgaris; [12],12.5 µg/mL
same,MIC C. diversus,Citrobacter diversus; [12],25 µg/mL
PRT495 (CDCDLRGTSGDACNLEQGLCGCVEETGACPCKENVFGPQCNECREGTFALRADNPLGCSP; listed as Homo sapiens),MIC against P. aeruginosa,Pseudomonas aeruginosa; [12],25 µg/mL
same,MIC against K. pneumonia,Klebsiella pneumonia; [12],12.5 µg/mL
same,MIC against E. coli BL21,E. coli BL21; [12],50 µg/mL
same,MIC against P. mirabilis,Proteus mirabilis; [12],25 µg/mL
same,MIC against E. cloacae,Enterobacter cloacae; [12],25 µg/mL
same,MIC against M. catarrhalis,Moraxella catarrhalis; [12],12.5 µg/mL
same,MIC,E. coli DH5α,25 µg/mL
same,MIC against A. hydrophila,Aeromonas hydrophila; [12],50 µg/mL
same,MIC against S. marcescens,Serratia marcescens; [12],25 µg/mL
same,MIC against P. vulgaris,Proteus vulgaris; [12],12.5 µg/mL
same,MIC against C. diversus,Citrobacter diversus; [12],25 µg/mL
PRT462 (DVDECLEGLDDCHYNQLCENTPGGHRCSCPRGYRMQGPS; listed as Homo sapiens),MIC against P. aeruginosa,Pseudomonas aeruginosa; [12],100 µg/mL
same,MIC against K. pneumonia,Klebsiella pneumonia; [12],12.5 µg/mL
same,MIC against E. coli BL21,E. coli BL21; [12],12.5 µg/mL
same,MIC against P. mirabilis,Proteus mirabilis; [12],25 µg/mL
same,MIC against E. cloacae,Enterobacter cloacae; [12],12.5 µg/mL
same,MIC against M. catarrhalis,Moraxella catarrhalis; [12],50 µg/mL
same,MIC,E. coli DH5α,12.5 µg/mL
same,MIC against A. hydrophila,Aeromonas hydrophila; [12],12.5 µg/mL
same,MIC against S. marcescens,Serratia marcescens; [12],25 µg/mL
same,MIC against P. vulgaris,Proteus vulgaris; [12],12.5 µg/mL
same,MIC against C. diversus,Citrobacter diversus; [12],12.5 µg/mL
PRT899 (NINECASNPCLNQGTCIDDVAGYKCNCLLPYTGATCE; listed as Homo sapiens),MIC,Pseudomonas aeruginosa; [1],12.5 µg/mL
same,MIC,Klebsiella pneumonia; [2],12.5 µg/mL
same,MIC,E. coli BL21; [3],12.5 µg/mL
same,MIC,Proteus mirabilis; [4],50 µg/mL
same,MIC,Enterobacter cloacae; [5],50 µg/mL
same,MIC,Moraxella catarrhalis; [6],12.5 µg/mL
same,MIC,E. coli DH5α,12.5 µg/mL
same,MIC,Aeromonas hydrophila; [7],12.5 µg/mL
same,MIC,Serratia marcescens; [8],12.5 µg/mL
same,MIC,Proteus vulgaris; [9],12.5 µg/mL
same,MIC,Citrobacter diversus; [10],50 µg/mL
PRT1077 (RSHACENDQYGKPGGCSDICLLANSHKARTCRCRSGFSLGSDGKSCK; listed as Homo sapiens),MIC P. aeruginosa,Pseudomonas aeruginosa; [11],12.5 µg/mL
same,MIC K. pneumonia,Klebsiella pneumonia; [11],50 µg/mL
same,MIC E. coli BL21,E. coli BL21; [11],12.5 µg/mL
same,MIC P. mirabilis,Proteus mirabilis; [11],25 µg/mL
same,MIC E. cloacae,Enterobacter cloacae; [11],25 µg/mL
same,MIC M. catarrhalis,Moraxella catarrhalis; [11],25 µg/mL
same,MIC,E. coli DH5α,12.5 µg/mL
same,MIC A. hydrophila,Aeromonas hydrophila; [11],25 µg/mL
same,MIC S. marcescens,Serratia marcescens; [11],12.5 µg/mL
same,MIC P. vulgaris,Proteus vulgaris; [11],50 µg/mL
same,MIC C. diversus,Citrobacter diversus; [11],25 µg/mL
PRT555 (CDCSAAGTQGNACRKDPRVGRCLCKPNFQGTHCELCAPGFYGPGCQP; listed as Homo sapiens),MIC against P. aeruginosa,Pseudomonas aeruginosa; [12],12.5 µg/mL
same,MIC against K. pneumonia,Klebsiella pneumonia; [12],25 µg/mL
same,MIC against E. coli BL21,E. coli BL21; [12],25 µg/mL
same,MIC against P. mirabilis,Proteus mirabilis; [12],50 µg/mL
same,MIC against E. cloacae,Enterobacter cloacae; [12],50 µg/mL
same,MIC against M. catarrhalis,Moraxella catarrhalis; [12],25 µg/mL
same,MIC,E. coli DH5α,50 µg/mL
same,MIC against A. hydrophila,Aeromonas hydrophila; [12],25 µg/mL
same,MIC against S. marcescens,Serratia marcescens; [12],12.5 µg/mL
same,MIC against P. vulgaris,Proteus vulgaris; [12],25 µg/mL
same,MIC against C. diversus,Citrobacter diversus; [12],12.5 µg/mL
